Test results from patent US4434290A, “Pyrido (4,3-B) carbazoles substituted in the 1 position by a polyamine chain” (priority 1978, dated 1984).

Experiments:
C13/8 cells = assay: In vitro cytotoxic study on hamster cells, complete inhibition of growth, C13/8 (Table XVI); type: cell-based; conditions: for IC (100 (complete growth inhibition, minimal)): Mesocricetus auratus, read-out: Minimal dose leading to a complete inhibition of the growth
Text: (§1) Cytotoxic "in vitro" study on hamster cells on leukemia L1210 cells of the serie.
In particular, the line BHK 21 of hamster cells and a clone derived from this line were used, converted by the virus of the hamster sarcoma (clone HS5).
After detachment by trypsin, the cells were placed under culture in plastic Petri dishes of 35 mm diameter at the concentration of 2.10^5 cells/dish, in a "Eagle" culture medium supplemented with "Bactotryptophosphate Broth Difco" and with 10% of calf serum [M. STOKER and I. MAC-PHERSON Virology, 14, 1961, 359].
(§2) After 5 hours, the cells were attached to a plastic support and the products to be tested whose solutions had been formed in water or in DMSO (dimethylsulphoxide) if the product was little soluble in water, was added. In the latter case a control was carried out with the same final concentration of DMSO in the culture medium.
(§3) The state of the cells was examined 24, 48 and 72 hours later.

HS5 cells = assay: In vitro cytotoxic study on hamster cells converted by the virus of the hamster sarcoma, clone HS5 (Table XVI); type: cell-based; conditions: for IC (100 (complete growth inhibition, minimal)): Mesocricetus auratus, read-out: Minimal dose leading to a complete inhibition of the growth
Method: Cytotoxic "in vitro" study on hamster cells on leukemia L1210 cells of the serie. In particular, the line BHK 21 of hamster cells and a clone derived from this line were used, converted by the virus of the hamster sarcoma (clone HS5). […] STOKER and […] Virology, 14, 1961, 359]. After 5 hours, the cells were attached to a plastic support and the products to be tested whose solutions had been formed in water or in DMSO (dimethylsulphoxide) if the product was little soluble in water, was added. In the latter case a control was carried out with the same final concentration of DMSO in the culture medium. The state of the cells was examined 24, 48 and 72 hours later.

L1210 cells = assay: In vitro cytotoxic study on leukemia L1210 cells, complete inhibition of growth (Table XVI); type: cell-based; conditions: for IC (100 (complete growth inhibition, minimal)): Mus musculus, read-out: Minimal dose leading to a complete inhibition of the growth
Method: as §1, §2, §3
In the case of the L1210 cells, the tests were carried out in a medium gelled with agarose, the L1210 cells growing in suspension.

[1] = tested on: cells of viro-induced leukemia of Friend; assay: In vitro cytotoxic study on cells of the Friend leukemia of the mouse (Table XV); type: cell-based; conditions: for IC50 / IC100: Mus musculus, 24 h; for IC50: read-out: LD 50 (50% lethal dose); for IC100: read-out: LD 100 (100% lethal dose); for LD 50 HUM / LD 50 product: ratio to reference HUM
Method: "In vitro" cytotoxic study of the compounds of the invention on the cells of viro-induced leukemia of Friend in the mouse [J. Exp. Med. 1957, 105, p. 307-318].
The cells were grown in suspension in the RPMI 1640 medium [catalogue of GIBCO Bio-Cult-Ltd, Washington Road Sandyford Industrial Estate Paisley PA3 4EP Renfrewshire Scotland] supplement with 20% of embryonary calf serum, with penicillin and with streptopycin. The duplication time of the culture was about 11 hours. The growth factor is equal to 1 or very close to 1 (all the cells multiplying).
The cultures were seeded at times t=0 at the concentration of 2×10^5 cells per ml in Falcon dishes containing 4 ml of medium. 24 hours later, the product to be tested (in solution, in acetic water) was added, at the moment when the cells were in the exponential growth phase. 24 hours after the addition of the product, the cells were counted and the percentage of living cells determined by an exclusion test with trypan blue.

leukemia L1210 = assay: Leukemia L1210 in vivo, measurement of survival time (Table XII); parameters: species or system B6 D2 Fl (C 57 Bl/6×DBA/2) Fl mice; MST: unit not given here; conditions: 10^5 cells, i.p.
Method: The following pharmacological trials relate to the effects of the compounds of the invention on leukemia L1210 in vivo.
G. Proc. Nat. Acad. Sci. 1972, 69, 1042-1047 and Schepartz S., Screening 1971, Cancer Chemother. Part 3; Vol. 2, p. 3].
The properties were determined by the curative action inoculated experimental leukemia L1210. This leukemia was maintained on B6 D2 Fl (C 57 Bl/6×DBA/2) Fl mice in the proportion of 6 or 10 mice per experimental batch. The compounds to be tested were injected by the intraperitoneal route one or several days after inoculation of the cells (1 injection only). […] The death interval was determined, the first figure of the Table indicating the date of the first mouse death and the second the date of the last mouse death. The mean survival time was also measured (MST). A characteristic value is the percentage of increased life span (ILS %). This value (Cancer. Res. 1971, 31, 1883-1887) is the ratio: [formula] where S^t =survival of treated animals and
S^c =survival of control animals.

cell cultures = assay: Cytotoxicity in pharmacological tests (general statements); type: cell-based
[2] = L1210, medium gelled with agarose

CCN(CC)CCCNc1nccc2c(C)c3[nH]c4ccncc4c3cc12 [BD 40, reference compound]
Minimal dose leading to a complete inhibition of the growth (C13/8 cells): 0.25 μ M
Minimal dose leading to a complete inhibition of the growth (HS5 cells): 0.25 μ M
Minimal dose leading to a complete inhibition of the growth (L1210 cells; [2]): 0.2 μ M

COc1ccc2[nH]c3c(C)c4ccnc(NCCN)c4cc3c2c1 [Compound 11]
activity compared with HUM / known derivatives [1]: more active than the derivatives already known
IC50 [1]: 100 nM
IC100 [1]: 0.25 µM
LD 50 HUM / LD 50 product [1]: 3
IC (100 (complete growth inhibition, minimal)) (C13/8 cells): 1 µM
IC (100 (complete growth inhibition, minimal)) (HS5 cells): 1 µM

COc1ccc2[nH]c3c(C)c4ccnc(NCCCN)c4cc3c2c1 [Compound 12]
IC50 [1]: 250 nM
IC100 [1]: 0.7 µM
LD 50 HUM / LD 50 product [1]: 1.5
IC (100 (complete growth inhibition, minimal)) (C13/8 cells): 2 µM
IC (100 (complete growth inhibition, minimal)) (HS5 cells): 2 µM

COc1ccc2[nH]c3c(C)c4ccnc(NCCCCN)c4cc3c2c1 [Compound 13]
IC50 [1]: 7000 nM
IC100 [1]: 15 µM
LD 50 HUM / LD 50 product [1]: 0.04
IC (100 (complete growth inhibition, minimal)) (C13/8 cells): 2 µM
IC (100 (complete growth inhibition, minimal)) (HS5 cells): 2 µM

COc1ccc2[nH]c3c(C)c4ccnc(NCCCCCN)c4cc3c2c1 [Compound 14]
IC50 [1]: 500 nM
IC100 [1]: 1.5 µM
LD 50 HUM / LD 50 product [1]: 0.6
IC (100 (complete growth inhibition, minimal)) (C13/8 cells): 2 µM
IC (100 (complete growth inhibition, minimal)) (HS5 cells): 2 µM

COc1ccc2[nH]c3c(C)c4ccnc(NCCCCCCN)c4cc3c2c1 [Compound 15]
IC50 [1]: 800 nM
IC100 [1]: 2 µM
LD 50 HUM / LD 50 product [1]: 0.4
IC (100 (complete growth inhibition, minimal)) (C13/8 cells): 2 µM
IC (100 (complete growth inhibition, minimal)) (HS5 cells): 2 µM

COc1ccc2[nH]c3c(C)c4ccnc(NCCN(C)C)c4cc3c2c1 [Compound 16]
IC50 [1]: 800 nM
IC100 [1]: 3 µM
LD 50 HUM / LD 50 product [1]: 0.4
IC (100 (complete growth inhibition, minimal)) (C13/8 cells): 1 µM
IC (100 (complete growth inhibition, minimal)) (HS5 cells): 2 µM

COc1ccc2[nH]c3c(C)c4ccnc(NCCCN(C)C)c4cc3c2c1 [Compound 17]
IC50 [1]: 1500 nM
IC100 [1]: 3 µM
LD 50 HUM / LD 50 product [1]: 0.2
IC (100 (complete growth inhibition, minimal)) (C13/8 cells): 1 µM
IC (100 (complete growth inhibition, minimal)) (HS5 cells): 2 µM

CCN(CC)CCCNc1nccc2c(C)c3[nH]c4ccc(OC)cc4c3cc12 [Compound 18]
Death interval (mice) (leukemia L1210; 20 mg/kg, day +3): 13-19
ILS % (leukemia L1210; 20 mg/kg, day +3): 38.8%
MST (leukemia L1210; 20 mg/kg, day +3): 16.1
IC50 [1]: 500 nM
IC100 [1]: 1.5 µM
LD 50 HUM / LD 50 product [1]: 0.6
IC (100 (complete growth inhibition, minimal)) (C13/8 cells): 5 µM
IC (100 (complete growth inhibition, minimal)) (HS5 cells): 5 µM

CCN(CC)CCCC(C)Nc1nccc2c(C)c3[nH]c4ccc(OC)cc4c3cc12 (centres unmarked) [Compound 19]
Death interval (mice) (leukemia L1210; 10 mg/kg, day +4): 11-16
ILS % (leukemia L1210; 10 mg/kg, day +4): 25%
MST (leukemia L1210; 10 mg/kg, day +4): 13
Death interval (mice) (leukemia L1210; 20 mg/kg, day +4): 11-16
ILS % (leukemia L1210; 20 mg/kg, day +4): 19.2%
MST (leukemia L1210; 20 mg/kg, day +4): 12.4
IC50 [1]: 1300 nM
IC100 [1]: 3 µM
LD 50 HUM / LD 50 product [1]: 0.2

COc1ccc2[nH]c3c(C)c4ccnc(N5CCCCC5)c4cc3c2c1 [Compound 21]
IC50 [1]: 35000 nM
IC100 [1]: 100 µM
LD 50 HUM / LD 50 product [1]: 1.1
IC (100 (complete growth inhibition, minimal)) (C13/8 cells): > 5 µM
IC (100 (complete growth inhibition, minimal)) (HS5 cells): > 5 µM
cytotoxic activity (cell cultures): not cytotoxic

Cc1c2ccnc(NCCCN)c2cc2c1[nH]c1ccc(OCc3ccccc3)cc12 [Compound 23]
IC50 [1]: 300 nM
IC100 [1]: 0.9 µM
LD 50 HUM / LD 50 product [1]: 1

CCN(CC)CCCNc1nccc2c(C)c3[nH]c4ccc(OCc5ccccc5)cc4c3cc12 [Compound 24]
IC50 [1]: 3000 nM
IC100 [1]: 10 µM
LD 50 HUM / LD 50 product [1]: 0.1
IC (100 (complete growth inhibition, minimal)) (L1210 cells; [2]): 0.4 µM
activity compared with the reference BD40 (L1210 cells; summary of Table XVI): almost as active as the reference dipyrido-indole (BD40)

COc1ccc2[nH]c3c(C)c4ccnc(NCCCN)c4c(C)c3c2c1 [Compound 25]
Death interval (mice) (leukemia L1210; 10 mg/kg, day +4): 12-13
ILS % (leukemia L1210; 10 mg/kg, day +4): 21.1%
MST (leukemia L1210; 10 mg/kg, day +4): 12.6
Death interval (mice) (leukemia L1210; 20 mg/kg, day +4): 8-12
MST (leukemia L1210; 20 mg/kg, day +4): 9.6
activity compared with HUM / known derivatives [1]: more active than the derivatives already known
IC50 [1]: 120 nM
IC100 [1]: 0.3 µM
LD 50 HUM / LD 50 product [1]: 3
IC (100 (complete growth inhibition, minimal)) (L1210 cells; [2]): 0.9 µM

COc1ccc2[nH]c3c(C)c4ccnc(NCCCN(C)C)c4c(C)c3c2c1 [Compound 26]
Death interval (mice) (leukemia L1210; 10 mg/kg, day +4): 12-16
ILS % (leukemia L1210; 10 mg/kg, day +4): 38.5%
MST (leukemia L1210; 10 mg/kg, day +4): 14.4
Death interval (mice) (leukemia L1210; 20 mg/kg, day +4): 16-19
ILS % (leukemia L1210; 20 mg/kg, day +4): 67.3%
MST (leukemia L1210; 20 mg/kg, day +4): 17.4
IC50 [1]: 400 nM
IC100 [1]: 1 µM
LD 50 HUM / LD 50 product [1]: 0.75

CCN(CC)CCCNc1nccc2c(C)c3[nH]c4ccc(O)cc4c3cc12 [Compound 29]
Death interval (mice) (leukemia L1210; 10 mg/kg, day +4): 15-17
ILS % (leukemia L1210; 10 mg/kg, day +4): 55.8%
MST (leukemia L1210; 10 mg/kg, day +4): 16.2
Death interval (mice) (leukemia L1210; 20 mg/kg, day +4): 10-15
ILS % (leukemia L1210; 20 mg/kg, day +4): 19.2%
MST (leukemia L1210; 20 mg/kg, day +4): 12.4
activity compared with HUM / known derivatives [1]: more active than the derivatives already known
IC50 [1]: 17 nM
IC100 [1]: 0.04 µM
LD 50 HUM / LD 50 product [1]: 18

Cc1c2cc[n+](C)cc2c(C)c2c1[nH]c1ccc(O)cc12 [HUM, 2-methyl-9-hydroxy ellipticinium acetate, reference compound]
IC50 [1]: 300 nM
IC100 [1]: 0.8 µM
